Data: US7807676B2, “Diketo-Piperazine and Piperidine derivatives as antiviral agents” (priority 2006, dated 2010)
Where a name gives a salt, the structure may show the parent alone.

Test system: HIV-1 single-round infectious reporter virus
Assay: Single-round infectious HIV-1 luciferase reporter virus infection of HeLa CD4 cells (antiviral EC50)
Format: cell-based
Details: Human immunodeficiency virus 1, HeLa, read-out: EC50 Group from Table 3
Outline: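 Compound (≤10 μM final, 10 concentrations) was added to HeLa CD4 cells together with luciferase-reporter HIV-1 pseudovirus (nef replaced by luciferase, envelope supplied in trans) at MOI ~0.01. Cells were lysed 72 h post-infection at 37 °C for luminescence; percent inhibition versus untreated infection, fitted four-parameter logistic for EC50.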

Compound	EC50
COc1cnc(Nc2ccncn2)c2[nH]cc(C(=O)C(=O)N3CCN(c4nnnn4-c4ccccn4)CC3)c12 [B-92]	< 500 nM
O=C(C(=O)N1CCN(c2nn[nH]c2-c2nccs2)CC1)c1c[nH]c2c(-n3ccnn3)ncc(F)c12 [G-25a]	< 500 nM
CS(=O)(=O)c1nc(N2CCN(C(=O)C(=O)c3c[nH]c4c(-n5ccnn5)ncc(F)c34)CC2)n(-c2ccccc2)n1 [G-28a]	< 500 nM
COc1cnc(-n2cnc(NC(=O)C(C)(C)C)n2)c2[nH]cc(C(=O)C(=O)N3CCN(c4nnnn4-c4ccccn4)CC3)c12 [B-80]	< 500 nM
COc1cnc(-c2cc(C(=O)NCCN3CCCC3)[nH]n2)c2[nH]cc(C(=O)C(=O)N3CCN(c4nnnn4-c4ccccc4)CC3)c12 [B-11, 3-(4-methoxy-3-(2-oxo-2-(4-(1-phenyl-1H-tetrazol-5-yl)piperazin-1-yl)acetyl)-1H-pyrrolo[2,3-c]pyridin-7-yl)-N-(2-(pyrrolidin-1-yl)ethyl)-1H-pyrazole-5-carboxamide.TFA]	< 500 nM
O=C(C(=O)N1CCN(c2nsnc2N2CCCC2)CC1)c1c[nH]c2c(-n3ccnn3)ncc(F)c12 [D-47]	< 500 nM
COc1cnc(-n2cnc(C)n2)c2[nH]cc(C(=O)C(=O)N3CCN(c4cn(CC#N)nc4-c4ccccc4)CC3)c12 [G-21]	< 500 nM
C[C@H]1CN(c2nnnn2-c2ccccc2)CCN1C(=O)C(=O)c1c[nH]c2c(-n3ccnn3)ncc(F)c12 [A-15]	< 500 nM
CCc1ncn(-c2ncc(OC)c3c(C(=O)C(=O)N4CCN(c5nnnn5-c5ccccc5)CC4)c[nH]c23)n1 [A-70]	< 500 nM
N#CCCC(=O)c1cccnc1N1CCN(C(=O)C(=O)c2c[nH]c3c(-n4ccnn4)ncc(F)c23)CC1 [D-45]	> 500 nM
COc1cnc(-n2cnc(C)n2)c2[nH]cc(C(=O)C(=O)N3CCN(c4nn[nH]c4-c4nccs4)CC3)c12 [G-25b]	< 500 nM
O=C(C(=O)N1CCN(c2cnnn2-c2ccccn2)CC1)c1c[nH]c2c(-n3ccnn3)ncc(F)c12 [G-22a]	< 500 nM
CSc1nc(N2CCN(C(=O)C(=O)c3c[nH]c4c(-n5ccnn5)ncc(F)c34)CC2)n(-c2ccccc2)n1 [G-26a]	< 500 nM
COc1cnc(-n2ccnn2)c2[nH]cc(C(=O)C(=O)N3CCN(c4nnnn4-c4ccccn4)CC3)c12 [A-59]	< 500 nM
COc1cnc(-n2cnc(C)n2)c2[nH]cc(C(=O)C(=O)N3CCN(c4c[nH]nc4-c4ccccc4)CC3)c12 [G-5b]	< 500 nM
COc1cnc(-n2cc(Cl)cn2)c2[nH]cc(C(=O)C(=O)N3CCN(c4nnnn4-c4ccccn4)CC3)c12 [B-79]	< 500 nM
COc1cnc(Br)c2[nH]cc(C(=O)C(=O)N3CCN(c4nncn4-c4ccccc4)CC3)c12 [A-53]	< 500 nM
C[C@@H]1CN(C(=O)C(=O)c2c[nH]c3c(Cl)ncc(O)c23)CCN1c1nnnn1-c1ccccc1 [A-56]	> 500 nM
CCOC(=O)N1CCN(c2ccc(-c3ncc(OC)c4c(C(=O)C(=O)N5CCN(c6nnnn6-c6ccccn6)CC5)c[nH]c34)cc2)CC1 [B-85]	< 500 nM
N#Cc1ccc(-n2nnnc2N2CCN(C(=O)C(=O)c3c[nH]c4c(-n5ccnn5)ncc(F)c34)CC2)cc1 [E-12]	> 500 nM
COc1cnc(-c2ccn(CC(=O)O)n2)c2c1c(C(=O)C(=O)N1CCN(c3nnnn3-c3ccccn3)CC1)cn2CC(=O)O [B-74]	> 500 nM

Compound	EC50
COc1cnc(-c2cnccn2)c2[nH]cc(C(=O)C(=O)N3CCN(c4nncn4-c4ccccc4)CC3)c12 [A-57]	< 500 nM
O=C(C(=O)N1CCN(c2[nH]nnc2-c2ccccc2)CC1)c1c[nH]c2c(-n3ccnn3)ncc(F)c12 [G-8a]	< 500 nM
COc1nc(N2CCN(C(=O)C(=O)c3c[nH]c4c(-n5ccnn5)ncc(F)c34)CC2)n(-c2ccccc2)n1 [G-29a]	< 500 nM
N#Cc1cccnc1N1CCN(C(=O)C(=O)c2c[nH]c3c(-n4ccnn4)ncc(F)c23)CC1 [D-4]	< 500 nM
CCc1ncn(-c2ncc(OC)c3c(C(=O)C(=O)N4CCN(c5ncccc5C(=O)c5nccs5)CC4)c[nH]c23)n1 [A-68]	< 500 nM
N#Cc1cccc(-n2nnnc2N2CCN(C(=O)C(=O)c3c[nH]c4c(-n5ccnn5)ncc(F)c34)CC2)c1 [E-11]	> 500 nM
COc1cnc(-n2cnc(C)n2)c2[nH]cc(C(=O)C(=O)N3CCN(c4nn(C)nc4-c4ccccc4)CC3)c12 [G-23]	< 500 nM
Nc1ccnn1-c1ncc(F)c2c(C(=O)C(=O)N3CCN(c4nnnn4-c4ccccc4)CC3)c[nH]c12 [B-5, 1-(7-(5-amino-1H-pyrazol-1-yl)-4-fluoro-1H-pyrrolo[2,3-c]pyridin-3-yl)-2-(4-(1-phenyl-1H-tetrazol-5-yl)piperazin-1-yl)ethane-1,2-dione]	< 500 nM
COc1cnc(-c2ccc(C#N)nc2)c2[nH]cc(C(=O)C(=O)N3CCN(c4nnnn4-c4ccccn4)CC3)c12 [H-11]	< 500 nM
O=C(C(=O)N1CCN(c2nnnn2-c2ccccc2)CC1)c1c[nH]c2ncccc12 [A-10]	< 500 nM
CN1CCCC1CCNC(=O)c1cc(-c2ncc(F)c3c(C(=O)C(=O)N4CCN(c5nnnn5-c5ccccc5)CC4)c[nH]c23)n[nH]1 (centres unmarked) [F-13]	< 500 nM
Cc1nnc(N2CCN(C(=O)C(=O)c3c[nH]c4c(-n5ccnn5)ncc(F)c34)CC2)n1-c1ccccc1 [A-47]	< 500 nM
O=C(C(=O)N1CCN(N2C(=O)CC2c2ccccc2)CC1)c1c[nH]c2c(-n3ccnn3)ncc(F)c12 (centres unmarked) [A-23]	> 500 nM
COc1cnc(-n2cnc(C)n2)c2[nH]cc(C(=O)C(=O)N3CCN(c4ncccc4C(O)c4nccs4)CC3)c12 (centres unmarked) [A-66]	< 500 nM
COc1cnc(-n2cnc(C)n2)c2[nH]cc(C(=O)C(=O)N3CCN(c4ncccc4C(=O)Nc4ccccc4)CC3)c12 [D-22]	> 500 nM
C[C@@H]1CN(c2nnnn2-c2ccccc2)[C@@H](C)CN1C(=O)C(=O)c1c[nH]c2c(-n3ccnn3)ncc(F)c12 [A-26]	< 500 nM
COc1cnc(-n2cnc(C)n2)c2[nH]cc(C(=O)C(=O)N3CCN(c4ncccc4C(=O)NCc4ccccc4)CC3)c12 [D-16]	> 500 nM
O=C(C(=O)N1CCC(c2c(-c3ccccc3)[nH]c3ccccc23)CC1)c1c[nH]c2c(-n3ccnn3)ncc(F)c12 [A-36]	> 500 nM
COc1cnc(-n2cnc(C)n2)c2[nH]cc(C(=O)C(=O)N3CCN(c4ncnc5cc(-c6ccccc6)sc45)C[C@H]3C)c12 [D-11]	> 500 nM
COc1cc[n+]([O-])c2[nH]cc(C(=O)C(=O)N3CCN(c4nnnn4-c4ccccc4)CC3)c12 [B-32]	> 500 nM
O=C1C(c2ccccc2)=C(N2CCN(C(=O)C(=O)c3c[nH]c4c(-n5ccnn5)ncc(F)c34)CC2)c2ccccc21 [D-23]	< 500 nM

Compound	EC50
CCN(C)C(=O)c1cc(-c2ncc(F)c3c(C(=O)C(=O)N4CCN(c5nnnn5-c5ccccc5)CC4)c[nH]c23)n[nH]1 [F-9]	< 500 nM
CCOC(=O)c1cc(-c2ncc(F)c3c(C(=O)C(=O)N4CCN(c5nnnn5-c5ccccc5)CC4)c[nH]c23)n[nH]1 [B-33]	< 500 nM
COc1cnc(-n2cnc(C)n2)c2[nH]cc(C(=O)C(=O)N3CCN(c4ccnnc4-c4ccccc4)CC3)c12 [G-15b]	< 500 nM
C/C(=N\O)c1ncc(F)c2c(C(=O)C(=O)N3CCN(c4nnnn4-c4ccccc4)CC3)c[nH]c12 [B-49]	< 500 nM
C[C@@H]1CN(C(=O)C(=O)c2c[nH]c3c(-n4ccnn4)ncc(F)c23)CCN1c1nnnn1-c1ccccc1 [A-45]	< 500 nM
C[C@@H]1CN(c2ncccc2N2CC(C)(C)C2=O)CCN1C(=O)C(=O)c1c[nH]c2c(-n3ccnn3)ncc(F)c12 [D-28]	> 500 nM
O=C(c1nccs1)c1cccnc1N1CCN(C(=O)C(=O)c2c[nH]c3c(-n4ccnn4)ncc(F)c23)CC1 [D-33]	< 500 nM
C[C@@H]1CN(c2ncnc3cc(-c4ccccc4)sc23)CCN1C(=O)C(=O)c1c[nH]c2c(-n3ccnn3)ncc(F)c12 [D-27]	< 500 nM
O=C(C(=O)N1CCN(c2nc(-c3ccccc3)ns2)CC1)c1c[nH]c2c(-n3ccnn3)ncc(F)c12 [A-28]	< 500 nM
O=C(C(=O)N1C[C@@H]2C[C@H]1CN2c1nnnn1-c1ccccc1)c1c[nH]c2c(-n3ccnn3)ncc(F)c12 [A-74]	> 500 nM
O=C(C(=O)N1CCC(c2nc(-c3cccnc3)no2)CC1)c1c[nH]c2c(-n3ccnn3)ncc(F)c12 [A-34]	> 500 nM
O=C(C(=O)N1CCC(n2ccnc2-c2ccccc2)CC1)c1c[nH]c2c(-n3ccnn3)ncc(F)c12 [G-11a]	< 500 nM
O=C(C(=O)N1CCN(c2nnnn2-c2ccccc2)CC1)c1c[nH]c2c(-c3cc(C(=O)N4CCN(CCO)CC4)[nH]n3)ncc(F)c12 [F-8]	< 500 nM
O=C(C(=O)N1CCN(c2cn[nH]c2-c2ccccn2)CC1)c1c[nH]c2c(-n3ccnn3)ncc(F)c12 [E-16, 1-(4-fluoro-7-(1H-1,2,3-triazol-1-yl)-1H-pyrrolo[2,3-c]pyridinyl-3-yl)-2-(4-(3-(pyridin-2-yl)-1H-pyrazol-4-yl)piperazin-1-yl)ethane-1,2-dione]	< 500 nM
COc1cnc(-c2ccnc(F)c2)c2[nH]cc(C(=O)C(=O)N3CCN(c4nnnn4-c4ccccn4)CC3)c12 [H-8]	< 500 nM
O=C(C(=O)N1CCN(c2ccccc2-c2ccccc2)CC1)c1c[nH]c2c(-n3ccnn3)ncc(F)c12 [A-4]	< 500 nM
COc1cnc(-n2cnc(C)n2)c2[nH]cc(C(=O)C(=O)N3CCN(c4cnnn4-c4ccccc4)CC3)c12 [G-30b]	< 500 nM
COc1cnccc1-c1ncc(OC)c2c(C(=O)C(=O)N3CCN(c4nnnn4-c4ccccn4)CC3)c[nH]c12 [H-5]	< 500 nM
Nc1ncc(F)c2c(C(=O)C(=O)N3CCN(c4nnnn4-c4ccccc4)CC3)c[nH]c12 [B-17, 1-(7-amino-4-fluoro-1H-pyrrolo[2,3-c]pyridin-3-yl)-2-(4-(1-phenyl-1H-tetrazol-5-yl)piperazin-1-yl)ethane-1,2-dione]	< 500 nM
COc1cnc(-c2cc(CNCCO)[nH]n2)c2[nH]cc(C(=O)C(=O)N3CCN(c4nnnn4-c4ccccc4)CC3)c12 [B-24, 1-(7-(5-((2-hydroxyethylamino)methyl)-1H-pyrazol-3-yl)-4-methoxy-1H-pyrrolo[2,3-c]pyridin-3-yl)-2-(4-(1-phenyl-1H-tetrazol-5-yl)piperazin-1-yl)ethane-1,2-dione TFA]	< 500 nM
